Measurements reported in PMC4810358, “Applicability of the Rayleigh equation for enantioselective metabolism of chiral xenobiotics by microsomes, hepatocytes and in-vivo retention in rabbit tissues” (Scientific Reports, 2016).
“And” between values parts separate entries of the source, which are not always exact repeats. Identical values can stand only once. Like-named read-outs stand apart in the source and are kept apart here.

Experiments:
[1] = enantioselective degradation of paclobutrazol in rat liver microsomes (Wu et al.); format: in vitro ADME; conditions: reconstructed from data of Fig. 3A in ref 19; R^2 0.97
Procedure: (§1) In addition to the microsome studies, the Rayleigh equation was fitted to reported studies on biodegradation of chiral compounds using liver microsomes and hepatocytes for which there was sufficient data available. We focused on studies published on years 2011–2015 that reported on first order kinetics and/or provided concentration - time profiles of the individual enantiomers after incubation of the racemate with the metabolizer, i.e. systems analyzed by approach II in the introduction.

[2] = de-methylation (enantioselective degradation) by Sprague Dawley rat liver microsomes; format: in vitro ADME; conditions: RLM-SD; for Overall first order kinetic constant, kc: racemate, 37 °C, 0–120 min; for Enantiomeric enrichment factor, εER: mean ± 95% confidence interval of Rayleigh slope, n = 3, NE = no enrichment
Procedure: (§2) The reactions were initiated by the addition of 120 μl NADPH-regenerating system (100 μL of solution A and 20 μL of solution B) that were added after a 3-min pre-incubation of the incubation mixtures containing 10 μl of substrate (1 g/L), 50 μl human/rat hepatic microsomes (20 mg protein/ml) and […] sodium phosphate buffer, 0.1 M pH 7.4 final volume was 500 μl. The reactions were stopped at time intervals by cooling on ice and addition of 100 μl acetonitrile followed by the addition of 20 μL internal standards stock solution (0.1 g/L). After termination of the reaction 200 microliter sodium carbonate solution (1 M, pH 12) was added and samples were then vigorously shaken for 1 min and consequently extracted into 6 ml n-hexane/acetonitrile (98/2 vol/vol) using an Intelli mixer on 50 rpm for 5 min. after centrifugation for 10 min (6,000 rpm) the upper organic layer was collected and the procedure was repeated. The samples were eventually evaporated till dry under a gentle stream of nitrogen. The residue was dissolved in 200 microliter methanol and analyzed by HPLC-MS. These degradation studies were done in duplicates.
(§3) Control assays were run under the same conditions, with 200 μL insect control supersomes (5 mg protein/ml) used as a negative control, i.e containing no CYP450 but the same protein content (cytochrome b5), while 10 μl of Verapamil (1 g/L) and 50 μl human microsomes (20 mg protein/ml) was incubated for 30 min as a positive control.
(§4) The chiral separation method was based on methodology of Begnall et al.[62]. […] For all separations the column and autosampler were maintained at 25 °C, with an optimal chromatographic run time of 24 minutes, the injection volume was 10 μL. QTOF mass spectrometer equipped with an electrospray ionization source (Agilent G3251A Dual ESI) was used for chiral drug identification and quantification. Analysis was performed in positive mode with a capillary voltage potential of 4000 V; the nebulizer gas pressure was set to 40 psi and drying gas flow was 10 L/min, with a drying gas temperature of 300 °C. The fragmentor voltage was set at 140 V, and skimmer voltage was 65 V. Scan range was 50–1000 m/z, the other MS parameters remained at auto-tune conditions.
(§5) The enantiomeric ratios were expressed as the ER – the peak area of one enantiomer (the more abundant) divided by that of the other enantiomer.

[3] = de-methylation (enantioselective degradation) by Wistar Han rat liver microsomes; format: in vitro ADME; conditions: RLM-W; for Overall first order kinetic constant, kc: racemate, 37 °C, 0–120 min; for Enantiomeric enrichment factor, εER: mean ± 95% confidence interval of Rayleigh slope, n = 3, NE = no enrichment
Procedure: as §2, §3, §4, §5

[4] = de-methylation (enantioselective degradation) by Lewis rat liver microsomes; format: in vitro ADME; conditions: RLM-L; for Overall first order kinetic constant, kc: racemate, 37 °C, 0–120 min; for Enantiomeric enrichment factor, εER: mean ± 95% confidence interval of Rayleigh slope, n = 3, NE = no enrichment
Procedure: as §2, §3, §4, §5

[5] = de-methylation (enantioselective degradation) by human liver microsomes; conditions: HLM; for Overall first order kinetic constant, kc: racemate, 37 °C, 0–120 min; for Enantiomeric enrichment factor, εER: mean ± 95% confidence interval of Rayleigh slope, n = 3, NE = no enrichment
Procedure: as §2, §3, §4, §5

[6] = de-methylation by liver microsomes, statements pooled over all microsome sources; format: in vitro ADME, human and rat; conditions: through all the incubations with the various microsomes
Procedure: as §2, with “The samples were eventually evaporated till dry under a gentle stream of nitrogen.” left out, “These degradation studies were done in duplicates.” left out
The chiral separation method was based on methodology of Begnall et al.[62]. […] QTOF mass spectrometer equipped with an electrospray ionization source (Agilent G3251A Dual ESI) was used for chiral drug identification and quantification. […]
as §5

[7] = cited from earlier work; for first order half-life: hepatocytes from male Sprague-Dawley rats; for individual first order rate constant: myclobutanil, hepatocytes from male Sprague–Dawley rats
[8] = parameters: method as in PMID 24027055; conditions: male Sprague–Dawley rat liver microsomes; cited from earlier work
[9] = parameters: method as in PMID 25820472; conditions: rat liver microsomes; cited from earlier work
[10] = stereoselective degradation of metalaxyl in hepatic microsomes (Zhang et al.); format: in vitro ADME, rat and rabbit; conditions: for individual degradation constant: calculated from concentration-time data of Fig. 3a in ref 22, R^2 = 0.98
Procedure: as §1

[11] = hepatic microsomes; cited from earlier work
[12] = loach liver microsomes; cited from earlier work
[13] = enantioselective metabolism in rat hepatocytes (reported studies); format: in vitro ADME
Procedure: as §1
Wang et al.[24] studied the enantioselective metabolism of the fungicide hexaconazole as well, they used male Sprague–Dawley rat hepatocytes. […] In a second test case, Wang et al.[52] studied the degradation of the fungicide myclobutanil in hepatocytes from male Sprague–Dawley rats.

[14] = enantioselective metabolism of diclofop-methyl in fish liver microsomes (Ma et al.); format: in vitro ADME, loach (Misgurnus anguillicaudatus); conditions: reconstructed from data of Fig. 3A in ref 50; R^2 = 0.94
Procedure: as §1

[15] = metabolism of hexaconazole in male Sprague–Dawley rat liver microsomes (Shen et al.); format: in vitro ADME; conditions: reconstructed from data of Fig. 3A in ref 20; R^2 = 0.99
Procedure: as §1

[16] = in vivo enantioselective behaviour in rabbit plasma and tissues after intravenous racemate (Sun et al.)
Source text: For example, Sun et al.[26] have reviewed the enantioselective behavior of the fungicide myclobutanil enantiomers in variant rabbit tissues following intravenous administration of the racemic fungicide. Using the plasma concentration-time curves of the two enantiomers (presented in Fig. 1A in ref. [26]) we obtained the enantiomeric enrichment factor of −28 ± 5 (R^2 = 0.97). Analysis of the distribution of myclobutanil in various tissues, presented in Fig. 3 in ref. [26], obtained the enantiomeric enrichment factors of −33 ± 16 (R^2 = 0.92) for the liver, −20 ± 6 (R^2 = 0.97) for the brain, −32 ± 16 (R^2 = 0.89) for the kidney and −21 ± 6 (R^2 = 0.97) for the muscle. […] This quantitative ranking is obscured by the large number of time trace data points in the original presentation. Another example can be presented by the study of Kong et al.[25] reporting on the stereoselective metabolism of the alpha blocker doxazosin (DOX) in vivo in male Sprague–Dawley rats.

CC(C)(C)[C@@H](O)[C@@H](Cc1ccc(Cl)cc1)n1cncn1 (racemic) [(2RS, 3RS)-paclobutrazol]
enantiomeric enrichment factor [1]: −66 ± 14%

CN(C)CCCC1(c2ccc(F)cc2)OCc2cc(C#N)ccc21 (racemic) [CTM, (R,S)-citalopram]
Overall first order kinetic constant, kc [2]: 0.02 min⁻¹ | Enantiomeric enrichment factor, εER [2]: −10 ± 4 (0.92) % | Overall first order kinetic constant, kc [3]: 0.07 min⁻¹ | Enantiomeric enrichment factor, εER [3]: −53 ± 3 (0.95) % | Overall first order kinetic constant, kc [4]: 0.007 min⁻¹ | Overall first order kinetic constant, kc [5]: 0.007 min⁻¹ | Enantiomeric enrichment factor, εER [5]: −36 ± 3 (0.95) %

CNCCC(Oc1ccc(C(F)(F)F)cc1)c1ccccc1 (racemic) [FLX, (R,S)-fluoxetine]
Overall first order kinetic constant, kc [2]: 0.02 min⁻¹ | Overall first order kinetic constant, kc [3]: 0.06 min⁻¹ | Overall first order kinetic constant, kc [4]: 0.04 min⁻¹ | Overall first order kinetic constant, kc [5]: 0.01 min⁻¹

CN1CCN2c3ccccc3Cc3ccccc3C2C1 (racemic) [MNS, (R,S)-mianserin]
Overall first order kinetic constant, kc [2]: 0.02 min⁻¹ | Enantiomeric enrichment factor, εER [2]: −11 ± 6 (0.92) % | Overall first order kinetic constant, kc [3]: 0.008 min⁻¹ | Enantiomeric enrichment factor, εER [3]: −38 ± 5 (0.92) % | Overall first order kinetic constant, kc [4]: 0.03 min⁻¹ | Enantiomeric enrichment factor, εER [4]: −53 ± 12 (0.98) % | Overall first order kinetic constant, kc [5]: 0.004 min⁻¹ | Enantiomeric enrichment factor, εER [5]: −237 ± 29% and −237 ± 29 (0.92) %

CN(C)CC(c1ccc(O)cc1)C1(O)CCCCC1 (racemic) [O-DMV, (R,S)-O-desmethylvanlafaxine]
Overall first order kinetic constant, kc [2]: 0.009 min⁻¹ | Enantiomeric enrichment factor, εER [2]: −9 ± 1 (0.96) % | Overall first order kinetic constant, kc [3]: 0.02 min⁻¹ | Enantiomeric enrichment factor, εER [3]: −4 ± 1% and −4 ± 1 (0.91) % | Overall first order kinetic constant, kc [4]: 0.007 min⁻¹ | Enantiomeric enrichment factor, εER [4]: −59 ± 2 (0.94) % | Overall first order kinetic constant, kc [5]: 0.025 min⁻¹ | Enantiomeric enrichment factor, εER [5]: −7 ± 1 (0.98) %

COc1ccc(C(CN(C)C)C2(O)CCCCC2)cc1 (racemic) [VNF, (R,S)-venlafaxine]
Overall first order kinetic constant, kc [2]: 0.03 min⁻¹ | Overall first order kinetic constant, kc [3]: 0.05 min⁻¹ | enantiomeric ratio, ER [6]: 1.1 ± 0.08 | Overall first order kinetic constant, kc [4]: 0.009 min⁻¹ | Overall first order kinetic constant, kc [5]: 0.01 min⁻¹

CCOC1Oc2ccc(OS(C)(=O)=O)cc2C1(C)C (single isomer, unassigned; (+)) [(+) ETO]
first order half-life ([7]; ethofumesate): 120 min

CCCCCCC(C)OC(=O)COc1nc(F)c(Cl)c(N)c1Cl (single isomer, unassigned; (+)) [(+) FPMH]
first order half-life ([7]; fluroxypyr methylheptyl ester): 5.1 min

CCCCC(O)(Cn1cncn1)c1ccc(Cl)cc1Cl (single isomer, unassigned; (+)) [(+)-hexaconazole]
individual first order degradation rate constant [8]: 0.09324 min⁻¹

CCCCC(C#N)(Cn1cncn1)c1ccc(Cl)cc1 (single isomer, unassigned; (+)) [(+)-myclobutanil]
individual first order rate constant [7]: 0.065 h⁻¹

CCOC1Oc2ccc(OS(C)(=O)=O)cc2C1(C)C (single isomer, unassigned; (-)) [(−) ETO]
first order half-life ([7]; ethofumesate): 246 min

CCCCCCC(C)OC(=O)COc1nc(F)c(Cl)c(N)c1Cl (single isomer, unassigned; (-)) [(−) FPMH]
first order half-life ([7]; fluroxypyr methylheptyl ester): 13.1 min

CCCCC(O)(Cn1cncn1)c1ccc(Cl)cc1Cl (single isomer, unassigned; (-)) [(−)-hexaconazole]
individual first order degradation rate constant [8]: 0.06804 min⁻¹

CCCCC(C#N)(Cn1cncn1)c1ccc(Cl)cc1 (single isomer, unassigned; (-)) [(−)-myclobutanil]
individual first order rate constant [7]: 0.046 h⁻¹

CC(C)(C)[C@@H](O)[C@@H](Cc1ccc(Cl)cc1)n1cncn1 [(2R, 3R)-paclobutraz]
individual first order degradation rate constant [9]: 0.0373 min⁻¹

CC(C)(C)[C@H](O)[C@H](Cc1ccc(Cl)cc1)n1cncn1 [(2S, 3S)-paclobutrazol]
individual first order degradation rate constant [9]: 0.0634 min⁻¹

COCC(=O)N(c1c(C)cccc1C)[C@@H](C)C(=O)OC [(+)-S-MX]
individual degradation constant [10]: 0.0864 min⁻¹ | half-life [11]: 7.71 min

COC(=O)[C@@H](C)Oc1ccc(Oc2ccc(Cl)cc2Cl)cc1 [(R)-DM]
individual first order degradation rate constant [12]: 0.0346 min⁻¹

COC(=O)[C@H](C)Oc1ccc(Oc2ccc(Cl)cc2Cl)cc1 [(S)-DM]
individual first order degradation rate constant [12]: 0.1904 min⁻¹

COCC(=O)N(c1c(C)cccc1C)[C@H](C)C(=O)OC [(−)-R-MX]
individual degradation constant [10]: 0.0415 min⁻¹ | half-life [11]: 15.58 min

CCOC1Oc2ccc(OS(C)(=O)=O)cc2C1(C)C (stereo not shown) [ETO, ethofumesate]
enantiomeric enrichment factor ([13]; ETO, reconstructed from concentration–time curves of Fig. 2 in ref 53, R^2 = 0.96): −75 ± 11%

COC(=O)C(C)Oc1ccc(Oc2ccc(Cl)cc2Cl)cc1 (stereo not shown) [diclofop-methyl]
enantiomeric enrichment factor [14]: −142 ± 40%

CCCCC(O)(Cn1cncn1)c1ccc(Cl)cc1Cl (stereo not shown) [hexaconazole]
enantiomeric enrichment factor [15]: −37 ± 2% | enantiomeric enrichment factor ([13]; hexaconazole, reconstructed from Fig. 3a in ref 24, R^2 = 0.99): −184 ± 6%

COCC(=O)N(c1c(C)cccc1C)C(C)C(=O)OC (stereo not shown) [metalaxyl]
Enantiomeric enrichment factor, εER ([10]; reconstructed from data of Fig. 3a in ref 22, R^2 = 0.94): −78 ± 14%

CCCCC(C#N)(Cn1cncn1)c1ccc(Cl)cc1 (stereo not shown) [myclobutanil]
enantiomeric enrichment factor ([16]; rabbit brain, from Fig. 3 in ref 26, R^2 = 0.97): −20 ± 6 | enantiomeric enrichment factor ([16]; rabbit kidney, from Fig. 3 in ref 26, R^2 = 0.89): −32 ± 16 | enantiomeric enrichment factor ([16]; rabbit liver, from Fig. 3 in ref 26, R^2 = 0.92): −33 ± 16 | enantiomeric enrichment factor ([16]; rabbit muscle, from Fig. 3 in ref 26, R^2 = 0.97): −21 ± 6 | enantiomeric enrichment factor ([16]; rabbit plasma, intravenous racemate, from Fig. 1A in ref 26, R^2 = 0.97): −28 ± 5 | decay kinetics / adherence to the Rayleigh law ([16]; rabbits' hearts and fats, data of ref 26): does not follow linear kinetics | enantiomeric enrichment factor ([13]; myclobutanil, reconstructed from Fig. 3a in ref 52, R^2 = 0.97): −24 ± 2%
